From paper PMC5025885, “Identification of Doxorubicin as an Inhibitor of the IRE1α-XBP1 Axis of the Unfolded Protein Response” (Scientific Reports, 2016) come the findings set out here.

The IC50 is the concentration at which inhibition is half-maximal.

The experiment concerns the target T1, IRE1α (Homo sapiens, UniProt O75460).
T1 construct: gene ERN1
In words: cell-free in vitro IRE1α RNase assay on XBP1 and BLOC1S1 RNA substrates. The class given is biochemical.

T1 sequence (O75460 19-977): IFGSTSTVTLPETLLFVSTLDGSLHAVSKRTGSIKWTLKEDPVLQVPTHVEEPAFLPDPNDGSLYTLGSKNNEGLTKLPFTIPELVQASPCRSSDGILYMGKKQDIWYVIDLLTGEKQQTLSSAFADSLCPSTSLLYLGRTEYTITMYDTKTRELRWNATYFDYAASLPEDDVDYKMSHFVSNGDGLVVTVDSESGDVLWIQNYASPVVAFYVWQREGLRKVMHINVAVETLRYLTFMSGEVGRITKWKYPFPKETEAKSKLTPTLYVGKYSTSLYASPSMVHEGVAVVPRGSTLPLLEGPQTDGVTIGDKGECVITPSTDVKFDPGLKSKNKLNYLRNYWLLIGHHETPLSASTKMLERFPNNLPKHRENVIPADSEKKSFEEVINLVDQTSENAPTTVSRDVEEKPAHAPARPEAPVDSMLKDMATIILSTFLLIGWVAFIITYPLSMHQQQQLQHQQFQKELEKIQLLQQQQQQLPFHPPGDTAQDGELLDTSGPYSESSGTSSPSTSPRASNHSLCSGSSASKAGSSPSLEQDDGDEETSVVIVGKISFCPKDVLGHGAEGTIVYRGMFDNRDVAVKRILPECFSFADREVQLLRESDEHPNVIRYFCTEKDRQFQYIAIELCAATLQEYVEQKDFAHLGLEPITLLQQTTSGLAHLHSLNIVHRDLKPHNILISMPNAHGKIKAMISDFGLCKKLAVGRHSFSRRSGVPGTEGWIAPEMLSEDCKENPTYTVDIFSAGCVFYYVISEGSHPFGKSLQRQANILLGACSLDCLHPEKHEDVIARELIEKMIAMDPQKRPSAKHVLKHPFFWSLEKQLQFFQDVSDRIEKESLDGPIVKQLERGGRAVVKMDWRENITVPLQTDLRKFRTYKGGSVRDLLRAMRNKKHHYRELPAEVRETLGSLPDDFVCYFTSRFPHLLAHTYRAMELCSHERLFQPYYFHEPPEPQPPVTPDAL

In the case of `COc1cccc2c1C(=O)c1c(O)c3c(c(O)c1C2=O)C[C@@](O)(C(=O)CO)C[C@@H]3O[C@H]1C[C@H](N)[C@H](O)[C@H](C)O1` [doxorubicin], the IC50 was approximately 20 µM.
